For experiment [1], the system named is RPMI-8226 subcutaneous xenograft. The experiment can be described thus: RPMI-8226 xenograft tumor model. As to conditions: after 42 days; TCH-165 100 mg/kg bid oral; bortezomib 0.375 reduced to 0.09 mg/kg i.v. 3X per week.
The test system of experiment [2] is primary human MM cells of newly diagnosed patient. As to the kind of experiment: Primary cell viability, CellTiter-Glo, 72 h. On the technique in general: Cellular ATP, detected with luciferase, serves as a proxy for viable cell number.
Excerpt: (§1) White blood cells (WBCs) were separated from red blood cells by the Ficoll density gradient. Multiple myeloma cells were then isolated from WBCs using human CD138 affinity magnetic beads (Miltenyi Biotec; cat#130-093-062; Gaithersburg, MD, USA) following the manufacturer’s protocol. Cells were cryopreserved in 10% DMSO in FBS. Revived cells were maintained in an RPMI medium with 10% FBS for 10 days prior to treatment. […] Cells were equilibrated to RT and CellTiter-Glo (Promega; Madison, WI, USA) solution (100 μL) was added and incubated with shaking for 10 min at RT. The assay plate was then allowed to equilibrate for 5 min at RT and luminescent readings were taken on a SpectraMax® M5. Data are presented as a percentage of the vehicle control for each experimental condition, after background subtraction. Error bars represent SD for triplicate wells.
The test system of experiment [3] is primary cells from a BTZ refractory MM patient. As to the kind of experiment: Primary cell viability, CellTiter-Glo, 72 h. As to conditions: Homo sapiens.
Excerpt: as §1

Bounds are passed on as bounds.

`CC(C)C[C@H](NC(=O)[C@H](Cc1ccccc1)NC(=O)c1cnccn1)B(O)O` [bortezomib, reference compound]: the average tumor volume in experiment [1] is 771.41 (±129.35) mm^3. In addition, the CC50 is 4 nM in experiment [2] and above 1000 nM in experiment [3].

Broadly, the CC50 is the concentration at which the toxic effect on the cells reaches its halfway point.

These data come from article PMC9138505, “Small Molecule 20S Proteasome Enhancer Regulates MYC Protein Stability and Exhibits Antitumor Activity in Multiple Myeloma” (Biomedicines, 2022).
